{"source": "paper PMC9124820", "about": "“In vitro evaluation of fenfluramine and norfenfluramine as victims of drug interactions” (Pharmacology Research & Perspectives, 2022)", "molecular_target": "T1, rCYP2B6 (Homo sapiens, UniProt P20813)", "T1 construct": "purchased Cypex, Ltd; host or cells: Escherichia coli", "T1 sequence (P20813 1-491)": "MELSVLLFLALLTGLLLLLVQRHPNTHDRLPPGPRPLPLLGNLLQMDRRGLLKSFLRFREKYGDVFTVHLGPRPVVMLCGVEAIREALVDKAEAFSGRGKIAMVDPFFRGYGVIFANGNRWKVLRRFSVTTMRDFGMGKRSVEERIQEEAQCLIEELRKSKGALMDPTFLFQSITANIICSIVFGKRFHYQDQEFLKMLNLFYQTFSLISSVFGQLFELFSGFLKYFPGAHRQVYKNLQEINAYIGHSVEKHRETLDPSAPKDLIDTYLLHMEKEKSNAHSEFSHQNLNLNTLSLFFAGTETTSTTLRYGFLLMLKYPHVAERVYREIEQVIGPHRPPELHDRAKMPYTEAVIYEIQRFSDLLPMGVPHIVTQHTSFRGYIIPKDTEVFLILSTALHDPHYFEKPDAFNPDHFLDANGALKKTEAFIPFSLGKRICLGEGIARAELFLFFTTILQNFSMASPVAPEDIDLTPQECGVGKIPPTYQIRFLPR", "assay": "Reaction phenotyping with rCYP2B6", "type": "in vitro ADME", "description": "For FFA and nFFA reaction phenotyping experiments, LC‐MS/MS experiments were performed using an API 4000 QTRAP or QTRAP 5500 mass spectrometer (SCIEX) with positive electrospray ionization. Chromatography was performed using an Atlantis dC18 analytical column (100 × 2.1 mm, 5 µm; Waters Corporation). Mobile phases were 0.2% v/v formic acid in water and 0.2% v/v formic acid in methanol. FFA and nFFA were eluted at a flow rate of 0.5 mL/min with a linear gradient of 40%−95% methanol from 0.20−2.1 min. The mass transitions monitored were 232.0>109.0 for FFA, 204.0>159.0 for nFFA, 348.0>330.0 for 1’‐hydroxymidazolam‐d4 internal standard (FFA reaction phenotyping), and 262.0>244.0 for hydroxybupropion‐d6 internal standard (nFFA reaction phenotyping). Analyst Instrument Control and Data Processing software (v. 1.6.1) was used for collecting and integrating data (SCIEX). Calibration curves ranging from 1.25 µM−0.01 µM were used to quantify nFFA. Relative quantitation was used to approximate the amount of FFA test material used.\nMethods used to evaluate the role of CYP450s in the metabolism of FFA have been described.[22], [23], [24] […] Supernatant fractions were analyzed by LC‐MS/MS.", "data": [{"smiles": "CCNC(C)Cc1cccc(C(F)(F)F)c1", "note": "(racemic) [FFA, (RS)‐ethyl (α‐methyl‐3‐trifluoromethylphenethyl)amine]", "values": [{"measurement": "FFA disappearance", "setting": "1 µM FFA, rCYP2B6", "value": 10, "unit": "%"}, {"measurement": "FFA loss", "setting": "10 μM FFA, rCYP2B6, 60 min", "value": 21, "unit": "%"}]}]}
